# Test results published in ChEMBL document CHEMBL5678818, “Discovery of potent SOS1 inhibitors that block RAS activation via disruption of the RAS-SOS1 interaction” (Proc Natl Acad Sci U S A, 2019).
# How the values were obtained:
# [1] = target: Myosin light chain kinase 3 (Homo sapiens) (UniProt Q32MK0); experiment: Inhibition of MLCK (unknown origin) assessed as residual activity at 100 nM by KINOMEscan analysis relative to control
# [2] = target: T1, Son of sevenless homolog 1 (Homo sapiens) (UniProt Q07889); experiment: Binding affinity to N-terminal His10-tagged wild-type recombinant human SOS1 catalytic domain (564 to 1049 residues) expressed in Escherichia coli assessed as change in Gibbs free energy by ITC analysis
# T1 sequence (whole entry): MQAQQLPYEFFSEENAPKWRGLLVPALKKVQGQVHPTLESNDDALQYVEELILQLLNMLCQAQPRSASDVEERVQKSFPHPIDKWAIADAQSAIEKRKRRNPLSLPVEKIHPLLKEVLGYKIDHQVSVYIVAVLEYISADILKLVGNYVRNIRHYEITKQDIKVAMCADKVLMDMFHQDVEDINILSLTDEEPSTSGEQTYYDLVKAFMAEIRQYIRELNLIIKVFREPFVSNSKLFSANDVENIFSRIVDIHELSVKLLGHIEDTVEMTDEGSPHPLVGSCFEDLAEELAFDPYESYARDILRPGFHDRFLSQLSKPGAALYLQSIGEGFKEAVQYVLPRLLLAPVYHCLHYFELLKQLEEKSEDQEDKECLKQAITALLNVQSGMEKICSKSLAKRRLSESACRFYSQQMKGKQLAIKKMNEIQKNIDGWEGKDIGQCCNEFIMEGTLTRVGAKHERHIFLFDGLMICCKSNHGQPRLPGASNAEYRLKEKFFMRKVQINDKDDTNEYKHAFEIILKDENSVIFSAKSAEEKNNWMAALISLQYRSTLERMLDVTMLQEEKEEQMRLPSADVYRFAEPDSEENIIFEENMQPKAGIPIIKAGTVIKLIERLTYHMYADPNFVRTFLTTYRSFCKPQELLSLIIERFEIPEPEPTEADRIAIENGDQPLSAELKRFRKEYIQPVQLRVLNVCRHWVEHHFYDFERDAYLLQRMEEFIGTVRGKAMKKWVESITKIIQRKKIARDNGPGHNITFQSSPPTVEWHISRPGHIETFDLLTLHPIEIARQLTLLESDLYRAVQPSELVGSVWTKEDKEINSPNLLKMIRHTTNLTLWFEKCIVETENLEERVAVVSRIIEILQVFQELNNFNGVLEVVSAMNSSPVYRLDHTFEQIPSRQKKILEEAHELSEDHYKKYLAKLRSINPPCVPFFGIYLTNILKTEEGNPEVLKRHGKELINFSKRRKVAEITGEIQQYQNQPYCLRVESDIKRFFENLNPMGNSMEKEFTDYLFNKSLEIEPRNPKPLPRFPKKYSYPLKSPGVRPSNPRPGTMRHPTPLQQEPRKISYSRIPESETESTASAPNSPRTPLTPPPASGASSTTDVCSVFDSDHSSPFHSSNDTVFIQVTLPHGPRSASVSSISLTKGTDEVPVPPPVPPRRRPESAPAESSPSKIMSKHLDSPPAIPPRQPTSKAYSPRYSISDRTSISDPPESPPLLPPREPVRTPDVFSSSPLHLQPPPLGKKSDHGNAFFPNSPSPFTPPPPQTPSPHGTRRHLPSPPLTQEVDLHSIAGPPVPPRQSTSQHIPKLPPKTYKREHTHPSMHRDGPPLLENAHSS
# [3] = target: T2, Serine/threonine-protein kinase Chk1 (Homo sapiens) (UniProt O14757); experiment: Inhibition of CHEK1 (unknown origin) assessed as residual activity at 100 nM by KINOMEscan analysis relative to control
# T2 sequence (whole entry): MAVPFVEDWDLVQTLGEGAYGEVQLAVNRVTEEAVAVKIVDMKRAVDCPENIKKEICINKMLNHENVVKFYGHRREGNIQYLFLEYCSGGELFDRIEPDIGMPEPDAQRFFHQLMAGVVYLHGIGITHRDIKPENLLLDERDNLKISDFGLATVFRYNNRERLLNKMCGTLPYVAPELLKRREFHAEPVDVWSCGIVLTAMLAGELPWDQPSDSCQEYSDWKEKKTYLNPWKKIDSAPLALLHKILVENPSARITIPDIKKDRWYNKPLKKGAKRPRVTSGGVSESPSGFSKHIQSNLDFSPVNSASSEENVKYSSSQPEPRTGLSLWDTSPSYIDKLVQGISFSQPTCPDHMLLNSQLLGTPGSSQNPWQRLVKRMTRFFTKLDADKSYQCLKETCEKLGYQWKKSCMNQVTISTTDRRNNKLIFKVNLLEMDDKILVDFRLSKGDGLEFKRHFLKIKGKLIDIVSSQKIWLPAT
# [4] = target: Ribosomal protein S6 kinase alpha-5 (Homo sapiens) (UniProt O75582); experiment: Inhibition of C-terminal RPS6KA5 kinetic domain 2 (unknown origin) assessed as residual activity at 100 nM by KINOMEscan analysis relative to control
# Sequence of Ribosomal protein S6 kinase alpha-5 (Homo sapiens) (O75582 whole entry, looked up, the tested form may be a part): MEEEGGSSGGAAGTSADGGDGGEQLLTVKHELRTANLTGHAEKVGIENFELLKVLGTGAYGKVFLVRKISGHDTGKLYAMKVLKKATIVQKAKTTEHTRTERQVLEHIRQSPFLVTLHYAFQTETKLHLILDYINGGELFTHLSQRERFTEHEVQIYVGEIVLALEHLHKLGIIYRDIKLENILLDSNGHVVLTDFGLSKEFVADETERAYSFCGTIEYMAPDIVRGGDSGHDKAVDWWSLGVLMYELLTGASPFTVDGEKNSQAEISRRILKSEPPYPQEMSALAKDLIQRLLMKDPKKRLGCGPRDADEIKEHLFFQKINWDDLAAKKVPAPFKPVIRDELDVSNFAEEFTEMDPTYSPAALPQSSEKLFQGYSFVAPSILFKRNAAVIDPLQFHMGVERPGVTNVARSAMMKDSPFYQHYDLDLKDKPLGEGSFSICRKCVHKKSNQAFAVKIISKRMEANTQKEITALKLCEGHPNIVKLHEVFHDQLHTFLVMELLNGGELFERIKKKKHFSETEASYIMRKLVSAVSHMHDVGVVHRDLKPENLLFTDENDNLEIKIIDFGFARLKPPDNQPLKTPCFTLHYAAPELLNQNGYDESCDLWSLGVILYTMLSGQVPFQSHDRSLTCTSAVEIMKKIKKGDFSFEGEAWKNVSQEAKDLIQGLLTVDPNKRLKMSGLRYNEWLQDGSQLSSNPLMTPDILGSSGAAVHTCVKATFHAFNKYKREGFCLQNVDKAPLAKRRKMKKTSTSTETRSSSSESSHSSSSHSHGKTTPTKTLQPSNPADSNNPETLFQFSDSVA
# [5] = target: Serine/threonine-protein kinase MRCK gamma (Homo sapiens) (UniProt Q6DT37); experiment: Inhibition of DMPK2 (unknown origin) assessed as residual activity at 100 nM by KINOMEscan analysis relative to control
# [6] = target: Serine/threonine-protein kinase VRK2 (Homo sapiens) (UniProt Q86Y07); experiment: Inhibition of VRK2 (unknown origin) assessed as residual activity at 100 nM by KINOMEscan analysis relative to control
# Sequence of Serine/threonine-protein kinase VRK2 (Homo sapiens) (Q86Y07 whole entry): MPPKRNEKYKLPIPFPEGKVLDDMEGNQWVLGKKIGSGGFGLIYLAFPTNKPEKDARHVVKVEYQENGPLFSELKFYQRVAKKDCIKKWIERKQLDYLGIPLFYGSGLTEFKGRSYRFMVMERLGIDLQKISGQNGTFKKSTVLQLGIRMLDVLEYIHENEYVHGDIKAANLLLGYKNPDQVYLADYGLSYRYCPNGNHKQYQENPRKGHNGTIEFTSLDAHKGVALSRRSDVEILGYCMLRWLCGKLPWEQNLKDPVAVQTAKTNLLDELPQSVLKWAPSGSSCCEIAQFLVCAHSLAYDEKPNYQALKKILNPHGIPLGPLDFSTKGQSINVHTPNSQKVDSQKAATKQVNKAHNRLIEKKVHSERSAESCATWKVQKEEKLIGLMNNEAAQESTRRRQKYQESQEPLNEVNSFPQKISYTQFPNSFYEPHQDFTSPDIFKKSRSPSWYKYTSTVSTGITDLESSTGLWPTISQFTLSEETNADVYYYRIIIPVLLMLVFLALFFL
# [7] = target: RAC-gamma serine/threonine-protein kinase (Homo sapiens) (UniProt Q9Y243); experiment: Inhibition of AKT3 (unknown origin) assessed as residual activity at 100 nM by KINOMEscan analysis relative to control
# Sequence of RAC-gamma serine/threonine-protein kinase (Homo sapiens) (Q9Y243 whole entry): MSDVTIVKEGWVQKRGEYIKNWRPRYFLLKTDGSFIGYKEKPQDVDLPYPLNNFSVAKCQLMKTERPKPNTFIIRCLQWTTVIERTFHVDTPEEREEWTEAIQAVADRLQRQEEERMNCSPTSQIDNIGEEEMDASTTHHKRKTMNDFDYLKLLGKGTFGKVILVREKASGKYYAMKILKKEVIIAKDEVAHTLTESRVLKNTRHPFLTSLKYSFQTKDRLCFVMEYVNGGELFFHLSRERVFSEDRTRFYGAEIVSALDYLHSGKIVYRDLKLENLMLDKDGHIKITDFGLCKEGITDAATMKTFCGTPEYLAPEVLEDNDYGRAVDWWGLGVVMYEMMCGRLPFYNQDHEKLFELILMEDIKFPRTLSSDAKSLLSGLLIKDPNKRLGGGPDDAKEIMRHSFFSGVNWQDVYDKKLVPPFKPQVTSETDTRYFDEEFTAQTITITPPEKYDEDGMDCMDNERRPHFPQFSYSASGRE
# [8] = system: Epidermal growth factor receptor (Homo sapiens), P00533 [G719C]; experiment: Inhibition of EGFR G719C mutant (unknown origin) assessed as residual activity at 100 nM by KINOMEscan analysis relative to control
# [9] = system: Receptor-type tyrosine-protein kinase FLT3 (Homo sapiens), P36888 [D835Y]; experiment: Inhibition of FLT3 D835Y mutant (unknown origin) assessed as residual activity at 100 nM by KINOMEscan analysis relative to control
# [10] = target: Casein kinase I isoform gamma-3 (Homo sapiens) (UniProt Q9Y6M4); experiment: Inhibition of CSNK1G3 (unknown origin) assessed as residual activity at 100 nM by KINOMEscan analysis relative to control
# [11] = target: Cyclin-dependent kinase 15 (Homo sapiens) (UniProt Q96Q40); experiment: Inhibition of PFTAIRE2 (unknown origin) assessed as residual activity at 100 nM by KINOMEscan analysis relative to control
# Sequence of Cyclin-dependent kinase 15 (Homo sapiens) (Q96Q40 whole entry, canonical isoform): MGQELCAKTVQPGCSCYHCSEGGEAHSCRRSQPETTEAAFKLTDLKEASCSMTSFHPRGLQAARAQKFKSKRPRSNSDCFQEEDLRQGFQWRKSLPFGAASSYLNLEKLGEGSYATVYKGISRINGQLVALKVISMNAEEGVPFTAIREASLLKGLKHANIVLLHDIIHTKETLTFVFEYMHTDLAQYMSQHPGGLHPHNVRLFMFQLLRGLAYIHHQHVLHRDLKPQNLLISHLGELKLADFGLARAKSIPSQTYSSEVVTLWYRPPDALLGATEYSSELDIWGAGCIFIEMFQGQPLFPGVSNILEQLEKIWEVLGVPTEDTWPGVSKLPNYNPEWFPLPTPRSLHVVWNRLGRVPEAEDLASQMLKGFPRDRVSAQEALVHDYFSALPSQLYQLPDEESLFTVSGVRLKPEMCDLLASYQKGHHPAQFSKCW
# [12] = system: Phosphatidylinositol 4,5-bisphosphate 3-kinase catalytic subunit alpha isoform (Homo sapiens), P42336 [Q546K]; experiment: Inhibition of PIK3CA Q546K mutant (unknown origin) assessed as residual activity at 100 nM by KINOMEscan analysis relative to control
# Sequence of Phosphatidylinositol 4,5-bisphosphate 3-kinase catalytic subunit alpha isoform (Homo sapiens), P42336 [Q546K] (P42336 whole entry Q546K, canonical isoform): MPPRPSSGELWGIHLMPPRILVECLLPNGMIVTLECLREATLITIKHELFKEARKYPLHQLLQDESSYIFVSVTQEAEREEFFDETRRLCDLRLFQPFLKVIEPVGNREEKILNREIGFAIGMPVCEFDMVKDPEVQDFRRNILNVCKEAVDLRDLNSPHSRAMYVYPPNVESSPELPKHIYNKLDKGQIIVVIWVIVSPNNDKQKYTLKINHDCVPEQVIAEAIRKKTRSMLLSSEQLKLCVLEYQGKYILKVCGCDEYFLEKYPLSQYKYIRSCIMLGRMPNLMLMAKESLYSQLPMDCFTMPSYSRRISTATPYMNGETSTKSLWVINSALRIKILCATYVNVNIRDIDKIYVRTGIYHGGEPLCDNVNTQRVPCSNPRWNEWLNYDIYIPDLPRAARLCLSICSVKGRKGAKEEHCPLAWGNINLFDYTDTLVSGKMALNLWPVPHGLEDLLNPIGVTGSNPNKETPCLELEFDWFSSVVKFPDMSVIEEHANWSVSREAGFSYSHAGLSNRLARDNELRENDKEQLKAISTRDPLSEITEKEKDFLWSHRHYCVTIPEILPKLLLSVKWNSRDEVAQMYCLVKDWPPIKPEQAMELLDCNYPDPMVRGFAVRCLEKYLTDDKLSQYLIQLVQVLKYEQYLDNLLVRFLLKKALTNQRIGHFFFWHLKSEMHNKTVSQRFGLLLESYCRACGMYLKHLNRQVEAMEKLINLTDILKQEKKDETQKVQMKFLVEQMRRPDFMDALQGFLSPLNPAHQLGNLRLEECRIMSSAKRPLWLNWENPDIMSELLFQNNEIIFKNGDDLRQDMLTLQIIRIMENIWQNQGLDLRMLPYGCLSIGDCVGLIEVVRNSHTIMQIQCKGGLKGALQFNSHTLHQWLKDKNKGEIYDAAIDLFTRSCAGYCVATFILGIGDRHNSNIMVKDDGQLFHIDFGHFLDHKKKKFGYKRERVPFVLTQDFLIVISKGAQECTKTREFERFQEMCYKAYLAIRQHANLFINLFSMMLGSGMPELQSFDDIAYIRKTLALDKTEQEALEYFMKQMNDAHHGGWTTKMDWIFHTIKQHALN
# [13] = target: Mitogen-activated protein kinase kinase kinase 12 (Homo sapiens) (UniProt Q12852); experiment: Inhibition of DLK (unknown origin) assessed as residual activity at 100 nM by KINOMEscan analysis relative to control
# Sequence of Mitogen-activated protein kinase kinase kinase 12 (Homo sapiens) (Q12852 whole entry, looked up): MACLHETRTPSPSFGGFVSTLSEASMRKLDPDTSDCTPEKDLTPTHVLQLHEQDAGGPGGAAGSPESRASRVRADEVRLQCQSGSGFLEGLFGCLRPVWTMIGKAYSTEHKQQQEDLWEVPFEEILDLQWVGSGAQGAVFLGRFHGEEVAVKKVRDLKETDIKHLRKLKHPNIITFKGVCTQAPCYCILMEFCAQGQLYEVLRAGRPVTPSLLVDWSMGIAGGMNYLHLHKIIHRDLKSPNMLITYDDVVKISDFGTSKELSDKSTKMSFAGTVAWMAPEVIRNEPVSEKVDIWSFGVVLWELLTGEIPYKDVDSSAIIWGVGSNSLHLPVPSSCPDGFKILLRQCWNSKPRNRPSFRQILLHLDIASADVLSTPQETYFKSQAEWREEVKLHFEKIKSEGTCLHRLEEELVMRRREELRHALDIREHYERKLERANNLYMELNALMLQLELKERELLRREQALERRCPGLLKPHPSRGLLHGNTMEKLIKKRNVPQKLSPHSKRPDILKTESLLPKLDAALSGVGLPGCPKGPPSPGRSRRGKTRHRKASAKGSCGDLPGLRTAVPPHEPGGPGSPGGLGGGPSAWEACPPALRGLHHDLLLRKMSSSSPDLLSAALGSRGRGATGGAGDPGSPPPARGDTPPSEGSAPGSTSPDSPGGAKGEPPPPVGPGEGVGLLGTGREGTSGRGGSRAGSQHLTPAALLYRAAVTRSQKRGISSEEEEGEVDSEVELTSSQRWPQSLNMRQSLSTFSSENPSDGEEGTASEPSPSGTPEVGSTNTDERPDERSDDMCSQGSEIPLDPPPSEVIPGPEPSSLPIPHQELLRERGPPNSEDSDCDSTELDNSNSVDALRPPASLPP
# Sequence of Myosin light chain kinase 3 (Homo sapiens) (Q32MK0 whole entry, looked up, the tested form may be a part): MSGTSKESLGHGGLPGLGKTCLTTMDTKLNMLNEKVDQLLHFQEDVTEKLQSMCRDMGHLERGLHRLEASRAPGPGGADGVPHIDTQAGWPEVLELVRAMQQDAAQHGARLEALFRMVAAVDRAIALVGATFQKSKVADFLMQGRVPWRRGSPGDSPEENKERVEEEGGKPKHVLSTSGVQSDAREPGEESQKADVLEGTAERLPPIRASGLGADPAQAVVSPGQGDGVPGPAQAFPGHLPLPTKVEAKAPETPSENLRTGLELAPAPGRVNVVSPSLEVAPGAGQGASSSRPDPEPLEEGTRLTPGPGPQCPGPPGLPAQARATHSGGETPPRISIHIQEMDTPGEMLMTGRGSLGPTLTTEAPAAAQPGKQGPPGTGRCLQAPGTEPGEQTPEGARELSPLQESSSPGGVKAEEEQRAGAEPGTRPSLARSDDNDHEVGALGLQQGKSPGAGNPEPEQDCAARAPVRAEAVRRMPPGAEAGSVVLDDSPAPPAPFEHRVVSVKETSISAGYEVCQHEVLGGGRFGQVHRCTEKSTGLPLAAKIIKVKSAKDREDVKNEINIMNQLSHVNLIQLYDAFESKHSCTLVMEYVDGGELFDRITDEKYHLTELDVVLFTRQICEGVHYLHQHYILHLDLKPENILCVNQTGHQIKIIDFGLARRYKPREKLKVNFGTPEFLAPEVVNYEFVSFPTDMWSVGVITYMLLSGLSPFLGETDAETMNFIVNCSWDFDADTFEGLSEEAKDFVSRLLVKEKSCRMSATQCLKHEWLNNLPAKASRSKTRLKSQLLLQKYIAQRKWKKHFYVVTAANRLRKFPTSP
smiles,measurement,setting,value
COc1cc2ncnc(N[C@H](C)c3cccc4ccccc34)c2cc1OC,Activity,[1],97%
same,deltaG,[2],-8.6 kcal/mol
same,Activity,[3],100%
same,Activity,[4],52%
same,Activity,[5],33%
same,Activity,[6],72%
same,Activity,[7],94%
same,Activity,[8],89%
same,Activity,[9],98%
same,Activity,[10],87%
same,Activity,[11],100%
same,Activity,[12],70%
same,Activity,[13],89%
